EC50 data for 2 compounds are collected here from ChEMBL document CHEMBL5154638, “Molecular Plasticity of Crystalline CK2α' Leads to KN2, a Bivalent Inhibitor of Protein Kinase CK2 with Extraordinary Selectivity” (J Med Chem, 2022).

A word on the EC50: it is the concentration giving half of the maximal effect. Higher therefore signals a need for much substance.

SMILES strings stand for the structures.

The test system of one data set is HeLa. Description: cells. The conditions noted are these: Homo sapiens, 24 h.
Another data set is described as follows: in vitro. The note with it: human, HEK293 cells.

For the compound `O=C(CCC(=O)NCCc1ccc(Cl)c(Cl)c1)NCCCCn1cnc2c(Br)c(Br)c(Br)c(Br)c21`, the EC50 in the data set with HeLa stood at 6.19 µM. Besides, it took 15.9 µM to reach a half-maximal effect in the data set “in vitro” (EC50 at 24 h). On to `O=C(O)c1ccc2c(c1)nc(Nc1cccc(Cl)c1)c1ccncc12` [SILMITASERTIB], for which the concentration for a half-maximal effect (EC50) with HeLa was 2.1 µM.
